Measured values: patent US20250186442A1, “Obicetrapib and Ezetimibe Combination Treatment and Fixed Dose Pharmaceutical Compositions” (NewAmsterdam Pharma B.V., priority 2022, published 2025)

Tests used:
[1] = Solubility in water; assay type: physicochemical; details: in water at 20° C.
Text: Solubility is especially challenging with obicetrapib. […] It would be desirable to have a solid form of obicetrapib that would deliver a larger amount of obicetrapib.

[2] = system: ApoA1; details: TA-8995-03; 10 mg daily dose, mild dyslipidemia; cited from earlier work
[3] = system: Lp(a); experiment: ROSE2 phase 2b clinical trial - Lp(a); assay type: in vivo, human; details: mITT Population; obicetrapib 10 mg, ezetimibe 10 mg
Procedure: The exploratory objectives of this study include the following: • To evaluate the effect of obicetrapib 10 mg+ezetimibe 10 mg combination therapy and obicetrapib 10 mg monotherapy, when used as an adjunct to high-intensity statin therapy, on non-high-density lipoprotein cholesterol (non-HDL-C), very low-density lipoprotein cholesterol (VLDL-C), HDL-C, TG, ApoE, Lp(a), and HDL-ApoE at Day 84; • To evaluate the effect of obicetrapib 10 mg+ezetimibe 10 mg combination therapy and obicetrapib 10 mg monotherapy, when used as an adjunct to high-intensity statin therapy, on the proportion of participants achieving predefined LDL-C targets at Day 84; • To assess the mean trough plasma levels of obicetrapib 10 mg+ezetimibe 10 mg combination therapy and obicetrapib 10 mg monotherapy at steady state on Days 28, 84, and 112; and • To evaluate the safety and tolerability profiles of obicetrapib 10 mg+ezetimibe 10 mg combination therapy and obicetrapib 10 mg monotherapy, when used as an adjunct to high-intensity statin therapy, assessed by clinical laboratory values and incidence of AEs.
This study will be a placebo-controlled, double-blind, randomized, Phase 2 study to evaluate the efficacy, safety, and tolerability of obicetrapib 10 mg, both in combination with ezetimibe 10 mg and as monotherapy, as an adjunct to high-intensity statin therapy. This study will take place at approximately 20 sites in the United States.
Up to 2 weeks after the Screening Visit, participants will return to the site on Day 1 (Visit 2) and confirm study eligibility before being randomized and beginning treatment. Approximately 114 eligible participants (38 participants per treatment group) will be randomized in a 1:1:1 ratio to 1 of the following treatment groups: • Combination therapy: Obicetrapib 10 mg+ezetimibe 10 mg (administered as one 10 mg obicetrapib tablet and one 10 mg ezetimibe capsule); • Obicetrapib monotherapy: Obicetrapib 10 mg (administered as one 10 mg obicetrapib tablet and 1 placebo capsule); or • Placebo (administered as 1 placebo tablet and 1 placebo capsule).
The exploratory efficacy endpoints include the following: • Percent change from Day 1 to Day 84 in non-HDL-C, VLDL-C, HDL-C, TG, ApoE, Lp(a), and HDL-ApoE for the obicetrapib 10 mg+ezetimibe 10 mg combination treatment group compared with the placebo group and for the obicetrapib 10 mg monotherapy treatment group compared with the placebo group; and • Proportion of participants at Day 84 that achieve LDL-C<2.6 mmol/L (<100 mg/dL), LDL-C<1.8 mmol/L (<70 mg/dL), and LDL-C<1.3 mmol/L (<50 mg/dL) for the obicetrapib 10 mg+ezetimibe 10 mg combination treatment group compared with the placebo group and for the obicetrapib 10 mg monotherapy treatment group compared with the placebo group.
Blood samples for the lipid profile must be obtained under fasting conditions (ie, after the participant has fasted for approximately 10 hours). For the purposes of this study, fasting will be defined as nothing by mouth except water and any essential medications. If a participant is not fasting, the Investigator should reschedule the visit as soon as possible. LDL-C level will be calculated using the Friedewald equation unless TG≥400 mg/dL or LDL-C≤50 mg/dL; in both cases, LDL-C level will be measured directly by preparative ultracentrifugation, also referred to as beta quantification. Additionally, LDL-C will be measured by preparative ultracentrifugation, also referred to as beta quantification, at baseline (Visit 2) and at the end of the 12-week Treatment Period (Visit 4) for all participants.
The Modified ITT (mITT) Population will include all participants in the ITT Population who receive at least 1 dose of any study drug and have a baseline value for the LDL-C assessment. […]

CCOC(=O)N1c2ccc(C(F)(F)F)cc2[C@@H](N(Cc2cc(C(F)(F)F)cc(C(F)(F)F)c2)c2ncc(OCCCC(=O)O)cn2)C[C@H]1CC [Obicetrapib, {4-[(2-{[3,5-bis(trifluoromethyl)benzyl][(2R,4S)-1-(ethoxycarbonyl)-2-ethyl-6-(trifluoromethyl)-1,2,3,4-tetrahydroquinolin-4-yl]amino}pyrimidin-5-yl)oxy]butanoic acid}]
solubility [1]: < 100 µg/mL | ApoA1 increase [2]: 63.4% | Lp(a) Change from Baseline to Day 84, Mean [3]: -19.71 nmol/L | Lp(a) Change from Baseline to Day 84, Median [3]: -4.50 nmol/L | Lp(a) Day 84, Mean [3]: 77.96 nmol/L | Lp(a) Day 84, Median [3]: 26.25 nmol/L | Lp(a) Percent Change from Baseline to Day 84 (%), Mean [3]: −15.16% | Lp(a) Percent Change from Baseline to Day 84 (%), Median [3]: −11.95%
